One test relates to P. falciparum. The following applies: literature (Chakrabarty et al. 2008); cited from earlier work.
Test [1] deals with Eimeria tenella merozoites. The test can be described thus: In vitro death of merozoite (propidium iodide staining, confocal microscopy). In kind it is cell-based. The following applies: 100 ppm; 10^4/mL merozoites; 1 h at 37° C.; mean ± SD (n = 3).
The test system of test [2] is Eimeria tenella sporozoites. The experiment in a line: Scanning electron microscopy of sporozoite morphology. In kind it is cell-based. The conditions noted are these: 5, 10, 20 ppm; 1 h at 37° C.; 10^6 sporozoites/mL; compared with untreated group.

Molecules are shown by their SMILES. Marks after values point to notes of the source that are not given here. *1 amine or outer side, *2 acyl side, *3 side chain or, on linkers, in order; H or OH if unused. Where a SMILES comes first, the peptide text is derived from it. Bridges are numbered along the chain shown (N, C = ends). [ ]: non-standard residue; d: D form. X1 = CC(C)CCCCCCCCC[C@H](CC(=O)[*:1])O[*:2]

This is an account of results in US20210283198A1, “METHOD FOR TREATING AND/OR PREVENTING COCCIDIOSIS” (priority 2020, published 2021).

On to `CC(C)CCCCCCCCC[C@@H]1CC(=O)N[C@@H](CCC(=O)O)C(=O)N[C@@H](CC(C)C)C(=O)N[C@H](CC(C)C)C(=O)N[C@@H](C(C)C)C(=O)N[C@@H](CC(=O)O)C(=O)N[C@H](CC(C)C)C(=O)N[C@@H](CC(C)C)C(=O)O1` [surfactin standard, surfactin] (EL[dL]VD[dL]L; linker N-C via X1), for which the “Intraerythrocytic growth of P. falciparum” value with P. falciparum is recorded as “potent inhibitor of intraerythrocytic growth”. Moreover, in test [1], the “Death of merozoite (%)” value is reported as 97 ± 0.01^b %. For the same compound, in test [2], the “Morphology of Eimeria tenella sporozoites (scanning electron microscopy)” value is recorded as “disrupt the morphology”.
